According to US20240316047A1, “INHIBITORS OF RNA HELICASE DHX9 AND USES THEREOF” (ACCENT THERAPEUTICS, INC., priority 2022, published 2024):
pIC50: −log10 of the molar value.

Molecular target: Human recombinant DHX9 protein (Homo sapiens (Human), UniProt Q08211)
Test: DHX9 ATPase assay (ADP-Glo)
Type: biochemical
Details: for pIC50: read-out: DHX9 Biochemical Inflection Point

Human recombinant DHX9 protein, sequence (Q08211 whole entry): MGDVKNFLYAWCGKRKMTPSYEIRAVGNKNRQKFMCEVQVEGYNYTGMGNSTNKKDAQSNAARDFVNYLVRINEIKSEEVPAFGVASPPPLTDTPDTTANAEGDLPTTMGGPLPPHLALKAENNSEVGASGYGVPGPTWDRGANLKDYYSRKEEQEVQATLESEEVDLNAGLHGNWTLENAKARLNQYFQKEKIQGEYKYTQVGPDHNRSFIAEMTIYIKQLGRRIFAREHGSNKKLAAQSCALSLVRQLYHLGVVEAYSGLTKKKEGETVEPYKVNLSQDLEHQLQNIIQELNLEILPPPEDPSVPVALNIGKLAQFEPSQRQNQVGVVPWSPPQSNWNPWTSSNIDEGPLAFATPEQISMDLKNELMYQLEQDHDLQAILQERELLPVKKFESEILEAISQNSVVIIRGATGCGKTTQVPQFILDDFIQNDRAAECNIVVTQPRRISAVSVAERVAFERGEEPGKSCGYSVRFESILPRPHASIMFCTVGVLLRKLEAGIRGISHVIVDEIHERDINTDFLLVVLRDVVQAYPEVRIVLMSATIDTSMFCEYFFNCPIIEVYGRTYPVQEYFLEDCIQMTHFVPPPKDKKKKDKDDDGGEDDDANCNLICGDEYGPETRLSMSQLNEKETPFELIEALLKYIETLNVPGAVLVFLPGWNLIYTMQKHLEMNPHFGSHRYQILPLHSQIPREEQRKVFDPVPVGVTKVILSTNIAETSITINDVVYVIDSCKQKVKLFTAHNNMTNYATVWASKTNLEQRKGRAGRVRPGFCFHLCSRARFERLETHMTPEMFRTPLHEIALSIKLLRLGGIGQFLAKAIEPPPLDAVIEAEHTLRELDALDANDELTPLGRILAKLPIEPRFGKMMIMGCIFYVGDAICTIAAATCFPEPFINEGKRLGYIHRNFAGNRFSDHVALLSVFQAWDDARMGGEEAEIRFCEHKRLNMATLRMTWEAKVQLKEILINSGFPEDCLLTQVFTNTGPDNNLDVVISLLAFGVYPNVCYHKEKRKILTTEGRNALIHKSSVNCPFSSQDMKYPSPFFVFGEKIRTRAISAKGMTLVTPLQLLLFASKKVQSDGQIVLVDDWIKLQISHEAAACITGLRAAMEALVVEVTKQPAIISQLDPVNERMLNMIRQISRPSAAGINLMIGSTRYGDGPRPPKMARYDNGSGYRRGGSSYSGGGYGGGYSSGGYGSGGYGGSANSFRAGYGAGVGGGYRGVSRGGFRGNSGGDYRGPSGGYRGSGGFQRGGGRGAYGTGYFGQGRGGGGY

SMILES | DHX9 Biochemical Max Inhibition | pIC50
Cc1cc(C(=O)Nc2cc(Cl)cc(NS(C)(=O)=O)c2)cn1-c1ccc(N(C)C2CCOC2)cn1 (stereo not shown) [Example 269] | 76.9% | 8.36
Cn1nc(-c2ccccc2OCc2ccccc2)cc1C(=O)Nc1cc(Cl)cc(NS(C)(=O)=O)c1 [Example 139] | 59.1% | 5.18
CS(=O)(=O)Nc1cc(Cl)cc(NC(=O)c2cc(N3CCNCC3)cs2)c1 [Example 244] | 71.9% | 7.13
CS(=O)(=O)Nc1cc(Cl)cc(NC(=O)c2cc(-c3ncccn3)cs2)c1 [Example 26] | 65.6% | 8.74
Cn1cc(C(=O)Nc2cc(Cl)cc(NS(C)(=O)=O)c2)cc1-c1ncc(OC2CN(CC(F)(F)F)C2)cc1F [Example 615] | 73.9 | 7.28
CS(=O)(=O)Nc1cc(Cl)cc(NC(=O)c2cc(-c3ncc(F)cn3)cs2)c1 [Example 338] | 78% | 7.80
CS(=O)(=O)Nc1cc(Br)cc(NC(=O)c2cnn(-c3ccccc3CO)c2)c1 [Example 161, N-(3-bromo-5-(methylsulfonamido)phenyl)-1-(2-(hydroxymethyl)phenyl)-1H-pyrazole-4-carboxamide] | 44.9% | 7.32
CS(=O)(=O)Nc1cc(Cl)cc(NC(=O)c2c[nH]c(-c3ncc(F)cc3F)c2)c1 [Example 560] | 59 | 7.29
CS(=O)(=O)Nc1cc(Cl)cc(NC(=O)c2cc(-c3cccnc3)cs2)c1 [Example 116, N-(3-chloro-5-(methylsulfonamido)phenyl)-4-(pyridin-3-yl)thiophene-2-carboxamide] | 56.6% | –
CS(=O)(=O)Nc1cc(F)cc(NC(=O)c2cc(-c3ccccc3O)cs2)c1 [Example 114] | 66.4% | 7.36
CCS(=O)(=O)Nc1cc(Cl)cc(NC(=O)c2cc(-c3ncc(F)cn3)n(C)c2)c1 [Example 542] | 73 | 7.52
Cc1sc(C(=O)Nc2cc(Cl)cc(NS(C)(=O)=O)c2)cc1-c1ncc(OC2CNC2)cc1F [Example 637] | 71.4 | 8.47
Cc1ccc2sc(C(=O)Nc3cc(Cl)cc(NS(C)(=O)=O)c3)cc2c1 [Example 331] | 57.8% | 6.71
Cn1cc(C(=O)Nc2cc(F)cc(NS(C)(=O)=O)c2)cc1-c1ncc(F)cc1F [Example 558] | 78 | 7.34
CS(=O)(=O)Nc1cc(Cl)cc(NC(=O)c2cnn(-c3ncccc3OCc3ccncc3)c2)c1 [Example 64] | 61.8% | 7.22
Cc1sc(C(=O)Nc2cc(Cl)cc(NS(C)(=O)=O)c2)cc1-c1ncccc1OCc1ccccc1 [Example 34] | 75.2% | 8.20
CCS(=O)(=O)Nc1cc(Cl)cc(NC(=O)c2cc(-c3ccccn3)c(C)s2)c1 [Example 28] | 68.3% | 8.38
CS(=O)(=O)Nc1cc(Cl)cc(NC(=O)c2cc(-c3ncccc3OCc3ccccc3)c(CO)s2)c1 [Example 216] | 78% | 8.36
CCOc1cnc(-c2csc(C(=O)Nc3cc(Cl)cc(NS(C)(=O)=O)c3)c2)nc1 [Example 342] | 73.6% | 7.48

SMILES | DHX9 Biochemical Max Inhibition | pIC50
COc1cc(N2CC(F)(F)C2)cnc1-n1cc(C(=O)Nc2cc(Cl)cc(NS(C)(=O)=O)c2)cc1C [Example 421] | 81.6 | 7.97
CS(=O)(=O)Nc1cc(Cl)cc(NC(=O)c2cnn(-c3ccccc3OCc3cccc(F)c3)c2)c1 [Example 210] | 71.3% | 8.44
Cc1cc(C(=O)Nc2cc(Cl)cc(NS(C)(=O)=O)c2)cn1-c1ccc(N2CC3COCC3C2)cn1 (stereo not shown) [Example 405] | 93.9 | 8.28
Cc1cccnc1-c1nc(C(=O)Nc2cc(Cl)cc(NS(C)(=O)=O)c2)cn1C [Example 156] | 51.2% | 6.16
Cn1cc(C(=O)Nc2cc(Cl)cc(NS(C)(=O)=O)c2)cc1-c1ccc(N2CCCC2)cn1 [Example 402] | 76.8 | 7.35
Cc1sc(C(=O)Nc2cc(Cl)cc(NS(C)(=O)=O)c2)cc1-c1ncc(F)cc1-c1cncc(F)c1 [Example 607] | 75.9 | 7.88
Cn1cc(C(=O)Nc2cc(Cl)cc(NS(C)(=O)=O)c2)cc1-c1ncc(N2CCC3(CC2)COC3)cc1F [Example 475] | 64.7 | 7.87
COc1ccc2cc(C(=O)Nc3cc(Cl)cc(NS(C)(=O)=O)c3)sc2c1 [Example 327] | 63.3% | 6.58
CCCS(=O)(=O)Nc1cc(Cl)cc(NC(=O)c2cc(-c3ccc(N4CC(F)(F)C4)cn3)n(C)c2)c1 [Example 531] | 72.3 | 5.59
Cn1cc(C(=O)Nc2cc(Cl)cc(NS(C)(=O)=O)c2)cc1-c1ncc(N2CCC3(CC2)CC3(F)F)cc1F [Example 518] | 56.7 | 6.82
COc1cnn(-c2csc(C(=O)Nc3cc(Cl)cc(NS(C)(=O)=O)c3)c2)c1 [Example 435] | 79.1 | 8.06
CS(=O)(=O)Nc1cc(Cl)cc(NC(=O)c2cnn(-c3ncccc3C#N)c2)c1 [Example 46] | 57.2% | 7.33
CS(=O)(=O)Nc1cc(Br)cc(NC(=O)c2cnn(-c3ccc(C#N)cn3)c2)c1 [Example 41] | 40.3% | 7.32
CS(=O)(=O)Nc1cc(Cl)cc(NC(=O)c2cnn(-c3ncc(F)cc3CCc3cccc(F)c3)c2)c1 [Example 251] | 64.7% | 5.28
Cn1cc(C(=O)Nc2cc(Cl)cc(NS(C)(=O)=O)c2)cc1-c1ccccc1 [Example 109] | 57.2% | 7.75
CS(=O)(=O)Nc1cc(Cl)cc(NC(=O)c2cc3cc(Cl)ccc3s2)c1 [Example 298] | 58.8% | 5.38
Cc1cc(C(=O)Nc2cc(Cl)cc(NS(C)(=O)=O)c2)cn1-c1ncc(N2CC3(C2)CC(F)(F)C3)cn1 [Example 413] | 64.5 | 7.88
CS(=O)(=O)Nc1cc(Br)cc(NC(=O)c2cccc(-n3cccn3)c2)c1 [Example 118] | 55.8% | 7.35
CS(=O)(=O)Nc1cc(Cl)cc(NC(=O)c2cnn(-c3ccc(N4CCCC4=O)cn3)c2)c1 [Example 90] | 61.5% | 7.62

SMILES | DHX9 Biochemical Max Inhibition | pIC50
Cc1sc(C(=O)Nc2cc(Cl)cc(NS(C)(=O)=O)c2)cc1-c1ccc(N2CCC(F)(F)C2)cn1 [Example 485] | 66.5 | 7.72
CS(=O)(=O)Nc1cc(Cl)cc(NC(=O)c2cnn(-c3ccccn3)c2)c1 [Example 37] | 62.6% | 7.32
CN(C)C(=O)c1cccc(OCc2cccc(F)c2)c1-n1cc(C(=O)Nc2cc(Cl)cc(NS(C)(=O)=O)c2)cn1 [Example 717] | 68.1 | 6.70
Cc1sc(C(=O)Nc2cc(Cl)cc(NS(C)(=O)=O)c2)cc1-c1ncccc1OC(C)c1cc(F)cc(F)c1 (single isomer, unassigned) [Example 632] | 71.5 | 6.62
COc1cnc(-c2csc(C(=O)Nc3cc(Cl)cc(NS(C)(=O)=O)c3)c2)nc1 [Example 340] | 65.6% | –
CSc1ccc(-n2cc(C(=O)Nc3cc(Cl)cc(NS(C)(=O)=O)c3)cn2)nc1 [Example 218] | 59% | 7.12
Cc1sc(C(=O)Nc2cc(Cl)cc(NS(C)(=O)=O)c2)cc1-c1ncc(N2CC(F)(F)C2)cc1C#N [Example 715] | 67.8 | 7.99
Cc1sc(C(=O)Nc2cc(Cl)cc(NS(C)(=O)=O)c2)cc1-c1ncc(OC(C)C)cn1 [Example 541, N-(3-chloro-5-(methylsulfonamido)phenyl)-4-(5-isopropoxypyrimidin-2-yl)-5-methylthiophene-2-carboxamide] | 74.1 | 7.82
Cn1cc(C(=O)Nc2cc(Cl)cc(NS(C)(=O)=O)c2)cc1-c1ccc(N2CCN(C(=O)C3CC3)CC2)cn1 [Example 594] | 80.1 | 7.96
CS(=O)(=O)Nc1cc(Cl)cc(NC(=O)c2cnn(C3CC4(COC4)C3)c2)c1 [Example 128] | 57.3% | 6.76
CS(=O)(=O)Nc1cc(Cl)cc(NC(=O)c2cc(-c3ccccc3O)cs2)c1 [Example 106] | 58.7% | 7.11
Cc1sc(C(=O)Nc2cc(Cl)cc(NS(C)(=O)=O)c2)cc1-c1cn(Cc2ccccc2)nn1 [Example 235] | 78.1% | 7.45
Cc1sc(C(=O)Nc2cc(Cl)cc(NS(C)(=O)=O)c2)cc1-c1ncc(F)cc1OCc1cnco1 [Example 732] | 70.8 | 7.98
CS(=O)(=O)Nc1cc(Cl)cc(NC(=O)c2cc(-c3ncc(N4CC(F)(F)C4)cc3F)cs2)c1 [Example 488] | 61.1 | 7.17
Cc1cc(C(=O)Nc2cc(Cl)cc(NS(C)(=O)=O)c2)cn1-c1ccc(N2CCC2)cn1 [Example 397] | 77.2 | 7.99
CS(=O)(=O)Nc1cc(Cl)cc(NC(=O)c2cc(-c3ncccc3CC(=O)N3CCCC3)cs2)c1 [Example 383] | 78.3% | 8.00
Cc1sc(C(=O)Nc2cc(Cl)cc(NS(C)(=O)=O)c2)cc1-c1ncc(F)cc1-c1ccn(C)c(=O)c1 [Example 605] | 67.5 | 7.61
Cn1cc(C(=O)Nc2cc(Cl)cc(NS(C)(=O)=O)c2)cc1-c1ncc(N2CC(F)(F)C2)cc1F [Example 599] | 88.7 | 7.72
CS(=O)(=O)Nc1cc(Br)cc(NC(=O)c2cc(-c3ccccc3O)cs2)c1 [Example 21] | 61.7% | 7.48
